pIC50: −log10 of the molar value.

One test has as its target T1, PERK (Homo sapiens, UniProt Q9NZJ5).
T1 sequence (Q9NZJ5 30-1116): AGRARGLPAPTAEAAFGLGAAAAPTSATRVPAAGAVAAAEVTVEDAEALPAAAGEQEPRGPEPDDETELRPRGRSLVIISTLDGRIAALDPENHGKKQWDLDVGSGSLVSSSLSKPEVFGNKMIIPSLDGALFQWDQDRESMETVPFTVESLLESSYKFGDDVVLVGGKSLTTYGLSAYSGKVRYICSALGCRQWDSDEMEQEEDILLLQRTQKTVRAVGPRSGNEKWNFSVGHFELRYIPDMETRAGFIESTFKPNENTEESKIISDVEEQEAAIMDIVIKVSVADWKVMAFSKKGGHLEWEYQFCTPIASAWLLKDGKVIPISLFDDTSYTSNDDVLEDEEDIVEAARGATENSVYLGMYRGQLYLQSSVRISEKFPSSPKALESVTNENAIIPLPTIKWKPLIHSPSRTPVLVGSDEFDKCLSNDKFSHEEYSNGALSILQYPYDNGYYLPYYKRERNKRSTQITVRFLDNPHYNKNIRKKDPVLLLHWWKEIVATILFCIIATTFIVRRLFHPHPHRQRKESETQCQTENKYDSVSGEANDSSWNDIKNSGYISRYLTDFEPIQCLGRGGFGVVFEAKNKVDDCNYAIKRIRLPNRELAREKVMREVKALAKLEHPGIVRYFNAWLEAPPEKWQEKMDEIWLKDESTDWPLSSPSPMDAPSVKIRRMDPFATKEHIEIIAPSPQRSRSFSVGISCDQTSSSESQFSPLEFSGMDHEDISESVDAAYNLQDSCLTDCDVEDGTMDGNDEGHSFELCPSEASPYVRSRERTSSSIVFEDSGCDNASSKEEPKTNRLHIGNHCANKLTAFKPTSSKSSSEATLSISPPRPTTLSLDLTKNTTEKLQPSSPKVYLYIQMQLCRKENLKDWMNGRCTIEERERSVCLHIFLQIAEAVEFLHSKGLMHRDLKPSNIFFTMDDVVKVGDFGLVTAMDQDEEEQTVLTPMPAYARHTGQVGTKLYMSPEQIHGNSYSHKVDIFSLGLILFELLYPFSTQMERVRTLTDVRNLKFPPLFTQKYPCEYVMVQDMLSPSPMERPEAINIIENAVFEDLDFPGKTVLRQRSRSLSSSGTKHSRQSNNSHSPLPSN
The experiment in a line: PERK enzyme assay (HTRF). It counts as biochemical. The settings on record: 500 μM ATP; at least one experimental run; read-out: PERK Enzyme (500 μM ATP) IC50. The method, boiled down:
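GST-PERK (0.75 nM final) pre-incubated 30–60 min with compound (≤1% DMSO) in HEPES pH 7.5/CHAPS/MgCl2/DTT, then 500 μM ATP and 40 nM biotin-eIF2α added for 60 min. EDTA quench; HTRF detection of phospho-eIF2α (Eu anti-rabbit/streptavidin-APC) read after 2 h; IC50 from concentration series.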
On the technique in general: TR-FRET usually uses a lanthanide donor and a delayed reading to cut background.
`CCN1C(=O)N(c2ccc(-c3cn(C)c4ncnc(N)c34)c(F)c2)CC1c1cc(F)cc(C(F)(F)F)c1` (single isomer, unassigned) [Example 88, 1-(4-(4-amino-7-methyl-7H-pyrrolo[2,3-d]pyrimidin-5-yl)-3-fluorophenyl)-3-ethyl-4-(3-fluoro-5-(trifluoromethyl)phenyl)imidazolidin-2-one]: the pIC50 was 6.72.

Staying with this test, now noted: PERK Enzyme (500 μM ATP) IC50; at least one experimental run; read-out: PERK Activity.
`CCN1C(=O)N(c2ccc(-c3cn(C)c4ncnc(N)c34)c(F)c2)CC1c1cc(F)cc(C(F)(F)F)c1` (single isomer, unassigned) [Example 88, 1-(4-(4-amino-7-methyl-7H-pyrrolo[2,3-d]pyrimidin-5-yl)-3-fluorophenyl)-3-ethyl-4-(3-fluoro-5-(trifluoromethyl)phenyl)imidazolidin-2-one]: the pIC50 is 6.00 to 7.00.

In the case of `CN1C(=O)N(c2ccc(-c3cn(C4CC4)c4ncnc(N)c34)c(F)c2)CC1c1ccc(F)cc1` (single isomer, unassigned) [Example 164, 1-(4-(4-amino-7-cyclopropyl-7H-pyrrolo[2,3-d]pyrimidin-5-yl)-3-fluorophenyl)-4-(4-fluorophenyl)-3-methylimidazolidin-2-one], the pIC50 is 6.00 to 7.00.

As for `Cc1nc(N)c2c(-c3ccc(N4CC(c5cc(F)cc(F)c5)N(C)C4=O)cc3F)cn(C)c2n1` (single isomer, unassigned) [Example 104, 1-(4-(4-amino-2,7-dimethyl-7H-pyrrolo[2,3-d]pyrimidin-5-yl)-3-fluorophenyl)-4-(3,5-difluorophenyl)-3-methylimidazolidin-2-one], the pIC50 was over 7.00.

For `CN1C(=O)N(c2ccc(-c3cn(C4CC4)c4ncnc(N)c34)c(F)c2)CC1c1ccc(Cl)cc1` (centres unmarked) [Example 167, 1-(4-(4-amino-7-cyclopropyl-7H-pyrrolo[2,3-d]pyrimidin-5-yl)-3-fluorophenyl)-4-(4-chlorophenyl)-3-methylimidazolidin-2-one], the pIC50 is over 7.00.

For “1-(4-(4-amino-2,7-dimethyl-7H- pyrrolo[2,3-d]pyrimidin-5-yl)-3- fluorophenyl)-4-(2,4-difluorophenyl)- 3-trifluoroethyl)imidazolidin-2-one [Example 83]”, the pIC50 is 6.00 to 7.00.

`CCN1C(=O)N(c2ccc(-c3cn(C)c4ncnc(N)c34)c(F)c2)CC1c1cc(F)cc(C(F)(F)F)c1` (centres unmarked) [Example 85, 1-(4-(4-amino-7-methyl-7H-pyrrolo[2,3-d]pyrimidin-5-yl)-3-fluorophenyl)-3-ethyl-4-(3-fluoro-5-(trifluoromethyl)phenyl)imidazolidin-2-one]: the pIC50 was 6.00 to 7.00.

On to `CN1C(=O)N(c2ccc(-c3cn(C)c4ncnc(N)c34)c(F)c2)CC1C1CCCCCC1` (centres unmarked) [Example 138, 1-(4-(4-amino-7-methyl-7H-pyrrolo[2,3-d]pyrimidin-5-yl)-3-fluorophenyl)-4-cycloheptyl-3-methylimidazolidin-2-one], for which the pIC50 is over 7.00.

As to `CCN1C(=O)N(c2ccc(-c3cn(C)c4ncnc(N)c34)c(F)c2)CC1c1cc(F)ccc1F` (racemic) [Example 1, 1-(4-(4-amino-7-methyl-7H-pyrrolo[2,3-d]pyrimidin-5-yl)-3-fluorophenyl)-4-(2,5-difluorophenyl)-3-ethylimidazolidin-2-one], the pIC50 is 6.00 to 7.00.

With `Cc1nc(N)c2c(-c3ccc(N4CC(c5ccc(F)cc5F)N(C)C4=O)cc3F)cn(C(C)C)c2n1` (single isomer, unassigned) [Example 95, 1-(4-(4-amino-7-isopropyl-2-methyl-7H-pyrrolo[2,3-d]pyrimidin-5-yl)-3-fluorophenyl)-4-(2,4-difluorophenyl)-3-methylimidazolidin-2-one], the pIC50 was 6.00 to 7.00.

Regarding `CN1C(=O)N(c2ccc(-c3cn(C)c4ncnc(N)c34)c(F)c2)CC1c1cccc(Cl)c1F` (centres unmarked) [Example 26, 1-(4-(4-amino-7-methyl-7H-pyrrolo[2,3-d]pyrimidin-5-yl)-3-fluorophenyl)-4-(3-chloro-2-fluorophenyl)-3-methylimidazolidin-2-one], the pIC50 is 6.00 to 7.00.

On to `Cc1cc(N2CC(c3cc(F)cc(F)c3)N(C)C2=O)ccc1-c1cn(C2CC2)c2ncnc(N)c12` (centres unmarked) [Example 119, 1-(4-(4-amino-7-cyclopropyl-7H-pyrrolo[2,3-d]pyrimidin-5-yl)-3-methylphenyl)-4-(3,5-difluorophenyl)-3-methylimidazolidin-2-one], for which the pIC50 was over 7.00.

As to `CN1C(=O)N(c2ccc(-c3cn(C)c4ncnc(N)c34)c(Cl)c2)CC1c1cc(F)cc(F)c1` (single isomer, unassigned) [Example 128, 1-(4-(4-amino-7-methyl-7H-pyrrolo[2,3-d]pyrimidin-5-yl)-3-chlorophenyl)-4-(3,5-difluorophenyl)-3-methylimidazolidin-2-one], the pIC50 was over 7.00.

Take `CN1C(=O)N(c2ccc(-c3cn(C)c4ncnc(N)c34)c(F)c2)CC1c1cccc(F)c1F` (centres unmarked) [Example 74, 1-(4-(4-amino-7-methyl-7H-pyrrolo[2,3-d]pyrimidin-5-yl)-3-fluorophenyl)-4-(2,3-difluorophenyl)-3-methylimidazolidin-2-one]: the pIC50 is 6.00 to 7.00.

As to `CN1C(=O)N(c2ccc(-c3cn(C4CC4)c4ncnc(N)c34)c(F)c2)CC1c1ccc(F)cc1` (centres unmarked) [Example 162, 1-(4-(4-amino-7-cyclopropyl-7H-pyrrolo[2,3-d]pyrimidin-5-yl)-3-fluorophenyl)-4-(4-fluorophenyl)-3-methylimidazolidin-2-one], the pIC50 is over 7.00.

Consider `CN1C(=O)N(c2ccc(-c3cn(C)c4ncnc(N)c34)c(F)c2)CC1C1CCCCC1` (single isomer, unassigned) [Example 62, 1-(4-(4-amino-7-methyl-7H-pyrrolo[2,3-d]pyrimidin-5-yl)-3-fluorophenyl)-4-cyclohexyl-3-methylimidazolidin-2-one], for which the pIC50 was over 7.00.

Take `CN1C(=O)N(c2ccc(-c3cn(C)c4ncnc(N)c34)c(F)c2)CC1c1cc(F)c(F)cc1F` (single isomer, unassigned) [Example 159, 1-(4-(4-amino-7-methyl-7H-pyrrolo[2,3-d]pyrimidin-5-yl)-3-fluorophenyl)-3-methyl-4-(2,4,5-trifluorophenyl)imidazolidin-2-one]: the pIC50 is 6.00 to 7.00.

As to `Cc1nc(N)c2c(-c3ccc(N4CC(c5ccc(F)cc5)N(C)C4=O)cc3F)cn(C3CC3)c2n1` (single isomer, unassigned) [Example 90, 1-(4-(4-amino-7-cyclopropyl-2-methyl-7H-pyrrolo[2,3-d]pyrimidin-5-yl)-3-fluorophenyl)-4-(4-fluorophenyl)-3-methylimidazolidin-2-one], the pIC50 was over 7.00.

Regarding `CN1C(=O)N(c2ccc(-c3cn(C4CC4)c4ncnc(N)c34)c(F)c2)CC1c1cc(F)ccc1F` (single isomer, unassigned) [Example 146, 1-(4-(4-amino-7-cyclopropyl-7H-pyrrolo[2,3-d]pyrimidin-5-yl)-3-fluorophenyl)-4-(2,5-difluorophenyl)-3-methylimidazolidin-2-one], the pIC50 is over 7.00.

For `Cc1nc(N)c2c(-c3ccc(N4CC(c5ccc(F)cc5F)N(C)C4=O)cc3F)nn(C)c2n1` (single isomer, unassigned) [Example 13, 1-(4-(4-amino-1,6-dimethyl-1H-pyrazolo[3,4-d]pyrimidin-3-yl)-3-fluorophenyl)-4-(2,4-difluorophenyl)-3-methylimidazolidin-2-one], the pIC50 was under 6.00.

Consider `CN1C(=O)N(c2ccc(-c3cn(C4CC4)c4ncnc(N)c34)c(F)c2)CC1c1ccc(F)cc1F` (centres unmarked) [Example 108, 1-(4-(4-amino-7-cyclopropyl-7H-pyrrolo[2,3-d]pyrimidin-5-yl)-3-fluorophenyl)-4-(2,4-difluorophenyl)-3-methylimidazolidin-2-one], for which the pIC50 was over 7.00.

On to `COc1cccc(C2CN(c3ccc(-c4cn(C)c5ncnc(N)c45)c(F)c3)C(=O)N2C)c1` (centres unmarked) [Example 102, 1-(4-(4-amino-7-methyl-7H-pyrrolo[2,3-d]pyrimidin-5-yl)-3-fluorophenyl)-4-(3-methoxyphenyl)-3-methylimidazolidin-2-one], for which the pIC50 is 6.00 to 7.00.

Turning to `CN1C(=O)N(c2ccc(-c3cn(C4CC4)c4ncnc(N)c34)c(F)c2)CC1c1cc(F)ccc1F` (centres unmarked) [Example 144, 1-(4-(4-amino-7-cyclopropyl-7H-pyrrolo[2,3-d]pyrimidin-5-yl)-3-fluorophenyl)-4-(2,5-difluorophenyl)-3-methylimidazolidin-2-one], the pIC50 is over 7.00.

These data come from US20180237441A1, “Chemical Compounds” (GlaxoSmithKline Intellectual Property (No.2) Limited, priority 2015, published 2018).
